Results from patent US10399966B2, “Compounds for treatment of trypanosomes and neurological pathogens and uses thereof” (The University of North Carolina at Chapel Hill, priority 2016, dated 2019).
Several values for one entry are separate records, joined by “and”; a condition that tells them apart may be missing. Equal values may be shown once. Read-outs that look alike come from different tables or passages of the source.

Columns and labels:
[1] = Mouse oral pharmacokinetics; assay type: in vivo
Experimental: […] Experiments were performed with groups of three mice per compound. Plasma was separated and extracted with acetonitrile for measurements of compound concentrations by liquid chromatography/tandem mass spectrometry.

[2] = Rat pharmacokinetics, intravenous administration; assay type: in vivo; parameters: AUC(0-inf): unit not given here; details: 5 mg/kg; for AUC(0-inf) / Cmax / half-life / clearance / Vd: rat, iv; for Cmax / half-life / clearance / Vd: plasma
Experimental: (§1) The pharmacokinetics of compound 1 was tested in rats after intravenous and oral administration. Two rats were administered 5 mg/kg compound 1 intravenously in a vehicle consisting of 7% Tween 80, 3% EtOH, 5% DMSO in saline. Two rats were administered 20 mg/kg compound 1 orally in a vehicle consisting of 5% DMSO, 0.5% Tween 80, 1% methylcellulose in water. The results are shown in Table 4 and FIGS. 3A-3B and 4A-4B.

Leishmania amazonensis = experiment: Antimicrobial activity against Leishmania amazonensis; assay type: cell-based; details: Table 1, Leishmania amazonensis
[3] = Efficacy PK blood samples, acute model; assay type: in vivo, mouse; details: 50 mg/kg po b.i.d.
Experimental: In a model of the acute phase of HAT, five mice infected with T. b. rhodesiense STIB900 were given the test compound at 50 mg/kg po b.i.d.×4 days, beginning 2 days post-infection. Efficacy PK blood samples were collected from three of the five mice prior to dose 7, and at 1 h and 6 h post-dose. Average plasma levels of the test compound were 9.1±7.6 μM (pre-dose), 18.6±7.2 μM (1 h), and 15.0±4.2 μM (6 h). Compound 1 attained 5/5 cures as determined by the absence of detectable parasitemia in any of the treated mice 60 days post-infection (FIG. 1).

Plasmodium falciparum = experiment: Antimicrobial activity against Plasmodium falciparum; assay type: cell-based; details: Table 1, Plasmodium falciparum
[4] = Rat pharmacokinetics, oral administration; assay type: in vivo; parameters: AUC(0-inf): unit not given here; details: 20 mg/kg; for AUC(0-inf) / Cmax / Tmax: rat, in vivo, po
Experimental: as §1

Trypanosoma cruzi = experiment: Efficacy against T. cruzi in vitro; assay type: cell-based
T. b. brucei TREU667 = experiment: Mouse efficacy model of chronic T. brucei infection; assay type: in vivo; details: 50 mg/kg po b.i.d. x 10 days from day 21, no detectable parasitemia through 180 days post-infection, 50 mg/kg
Experimental: For chronic efficacy, experiments were done in compliance with the University of Washington IACUC approved protocol. According to published procedures, groups of 5 mice were infected with 1×10^4 T. b. brucei (strain TREU667) at day 0 to establish a chronic infection. Treatment began on day 21 post-infection, and mice received 50 mg/kg test compound orally b.i.d. for 10 d (total of 20 doses) in a 200 μL volume of a vehicle composed of Phosal 53 MCT (60%), PEG400 (30%) and EtOH (10%). A control group received vehicle with no compound and another control group received a single intraperitoneal dose of diminazene aceturate at 10 mg/kg in water on day 21. […] Post dosing, parasitemia was monitored via microscopic examination of tail blood slides until 180 days post-infection. Mice were removed from the experiment once parasites were detected in the blood.
In a model of the chronic phase of HAT, compound 1 was administered to five mice infected with T. b. brucei TREU667 at 50 mg/kg/po b.i.d.×10 days, beginning 21 days post-infection. […] Efficacy PK blood samples were collected from three of the five mice prior to dose 15, and at 1 h and 6 h post-dose. […] Compound 1 attained 5/5 cures as determined by the absence of detectable parasitemia in any of the treated mice through 180 days post-infection (FIG. 2). […]

T. b. brucei = experiment: In vitro antitrypanosomal activity against T. brucei (growth inhibition); assay type: cell-based, Trypanosoma brucei
In short: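 Dose-response EC50 against T. brucei parasites with 0.4% DMSO final, 48 h at 37 °C; parasite density quantified by ATP luminescence (CellTiter-Glo).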

SMILES: O=C(Nc1ccc2sc(-c3ccc(F)c(F)c3)nc2c1)N1CC[C@H](F)C1 [Compound 1, (S)-2-(3,4-Difluorophenyl)-5-(3-fluoro-N-pyrrolidylamido)benzothiazole]
- Mouse oral PK Tlast ([1]; Table 5): 1440 min
- Mouse oral PK Average AUC ([1]; Table 5, n = 3): 13217 ± 2156 (n = 3) min * μmol/L
- AUC0 min-∞ ([1]; Table 13, mice, single 50 mg/kg oral gavage, vehicle Phosal 53 MCT(60%), PEG400 (30%), EtOH (10%)): 14673 ± 2833 µM·min
- Cmax ([1]; Table 13, mice, single 50 mg/kg oral gavage, vehicle Phosal 53 MCT(60%), PEG400 (30%), EtOH (10%), read-out: Cmax): 18.6 ± 5.54 µM
- Cmax ([1]; Table 13, mice, single 50 mg/kg oral gavage, vehicle Tween 80 (7%), EtOH (3%), DMSO (5%) in 0.9% NaCl, ± SEM of 3 mice, 50 mg/kg, read-out: Cmax): 23.3 µM
- AUC0 min-∞ ([1]; Table 13, mice, single 50 mg/kg oral gavage, vehicle methylcellulose cP 400 (0.5%), Tween 80 (0.5%) in water): 6352 ± 469 µM·min
- Cmax ([1]; Table 13, mice, single 50 mg/kg oral gavage, vehicle methylcellulose cP 400 (0.5%), Tween 80 (0.5%) in water, read-out: Cmax): 8.54 ± 0.41 µM
- percent of the Cmax remaining ([1]; mouse oral 50 mg/kg, 24 h time point): Less than 1%
- Cmax ([1]; mouse, plasma, po, 50 mg/kg, Table 5, n = 3, read-out: Mouse oral PK Average Cmax): 23.3 ± 5.22 µM
- Tmax ([1]; mouse, plasma, po, 50 mg/kg, Table 5, read-out: Mouse oral PK Tmax (converted)): 2 h
- Tmax ([2]; Mean ± SEM (n = 2)): 5 min
- Tmax ([2]; Rat 2): 5 min
- Tmax ([2]; in vivo, Rat 1, read-out: Tmax (converted)): 5 min
- AUC(0-inf) ([2]; in vivo, Mean ± SEM (n = 2)): 1440
- AUC(0-inf) ([2]; in vivo, Rat 1): 1380
- AUC(0-inf) ([2]; in vivo, Rat 2): 1500
- Cmax ([2]; Mean ± SEM (n = 2)): 11.7 µM
- half-life ([2]; Mean ± SEM (n = 2), read-out: Apparent T1/2 (min) for steady state): 96.7 min
- half-life ([2]; Mean ± SEM (n = 2), read-out: Apparent T1/2 (min) for terminal phase): 96.7 min
- clearance ([2]; Mean ± SEM (n = 2), read-out: Plasma CL): 0.561 L/h/kg
- Vd ([2]; Mean ± SEM (n = 2), read-out: Plasma Vz): 0.76 L/kg
- Vd ([2]; Mean ± SEM, read-out: Plasma Vss): 1.31 L/kg
- Cmax ([2]; Rat 1): 12.1 µM
- half-life ([2]; Rat 1, read-out: Apparent T1/2 (min) for steady state): 88.5 min
- half-life ([2]; Rat 1, read-out: Apparent T1/2 (min) for terminal phase): 88.5 min
- clearance ([2]; Rat 1, read-out: Plasma CL): 0.618 L/h/kg
- Vd ([2]; Rat 1, read-out: Plasma Vss): 1.32 L/kg
- Vd ([2]; Rat 1, read-out: Plasma Vz): 0.882 L/kg
- Cmax ([2]; Rat 2): 11.3 µM
- half-life ([2]; Rat 2, read-out: Apparent T1/2 (min) for steady state): 105 min
- half-life ([2]; Rat 2, read-out: Apparent T1/2 (min) for terminal phase): 105 min
- clearance ([2]; Rat 2, read-out: Plasma CL): 0.503 L/h/kg
- Vd ([2]; Rat 2, read-out: Plasma Vss): 1.3 L/kg
- Vd ([2]; Rat 2, read-out: Plasma Vz): 0.639 L/kg
- EC50 (Leishmania amazonensis): > 10 µM
- Average plasma levels ([3]; 1 h post dose 7): 18.6 ± 7.2 µM
- Average plasma levels ([3]; 6 h post dose 7): 15.0 ± 4.2 µM
- Average plasma levels ([3]; prior to dose 7 (pre-dose)): 9.1 ± 7.6 µM
- EC50 (Plasmodium falciparum): 16.7 µM
- Apparent BA ([4]; Mean ± SEM (n = 2)): 116.85%
- Apparent BA ([4]; Rat 3): 110.29%
- Apparent BA ([4]; Rat 4): 123.40%
- AUC(0-inf) ([4]; Mean ± SEM (n = 2)): 6270
- Cmax ([4]; Mean ± SEM (n = 2)): 8.92 µM
- Tmax ([4]; Mean ± SEM (n = 2)): 7 h
- AUC(0-inf) ([4]; Rat 3): 5770
- Cmax ([4]; Rat 3): 7.31 µM
- Tmax ([4]; Rat 3): 8 h
- AUC(0-inf) ([4]; Rat 4): 6770
- Cmax ([4]; Rat 4): 10.5 µM
- Tmax ([4]; Rat 4): 6 h
- EC50 (Trypanosoma cruzi; Table 1, Trypanosoma cruzi, read-out: EC50): 0.118 µM
- EC90 (Trypanosoma cruzi; Table 1, Trypanosoma cruzi, read-out: EC90): 0.178 µM
- EC50 (Trypanosoma cruzi; Trypanosoma cruzi, Table 6, read-out: T. cruzi EC50): 0.0585 µM
- EC50 (Trypanosoma cruzi; Trypanosoma cruzi, Table 10, read-out: T.cruzi EC50): 0.118 µM
- EC90 (Trypanosoma cruzi; Trypanosoma cruzi, Table 10, read-out: T.cruzi EC90): 0.178 µM
- mice cured (cures) (T. b. brucei TREU667): 5 of 5 and 5/5
- EC90 (T. b. brucei; Table 1, Trypanosoma brucei, read-out: EC90): 0.0548 µM
- EC50 (T. b. brucei; Trypanosoma brucei, Table 1, Trypanosoma brucei, read-out: EC50): 0.0348 µM
- EC50 (T. b. brucei; Trypanosoma brucei, Table 6, read-out: T. brucei EC50): 0.0348 µM
- EC50 (T. b. brucei; Trypanosoma brucei, Table 8, read-out: T. brucei EC50): 0.0348 µM
- EC50 (T. b. brucei; Trypanosoma brucei, Table 11, read-out: T. b. brucei EC50): 0.0348 µM
- EC50 (T. b. brucei; Trypanosoma brucei, Table 12, read-out: T. b. brucei EC50): 0.0348 µM
- EC50 (T. b. brucei; Trypanosoma brucei, Table 9, read-out: T. brucei EC50): 0.0348 µM
- EC90 (T. b. brucei; Trypanosoma brucei, Table 9, read-out: T. brucei EC90): 0.0548 µM
